Reference: patent US9765082B2, “Crystalline form of tiotropium bromide with lactose” (EUTICALS SPA, priority 2014, dated 2017)

Key:
[1] = Solid-state change of Tiotropium Bromide monohydrate on heating, by DRX; format: physicochemical; settings: 40° C. at 50% UR for 72 hours, FIGS. 4 and 4A
Procedure: FIGS. 4 and 4A show the DRX spectra of a Tiotropium Bromide monohydrate before and after the heating at 40° C. at 50% UR for 72 hours.
In fact, this is an equilibrium that is driven by the relative humidity of the environment. […] See the enclosed DRX spectra of a Tiotropium Bromide monohydrate before and after the above described treatment (FIGS. 4 and 4A).

[2] = 40° C. for few hours; literature data; cited from earlier work
[3] = Stability of the crystalline form on storage, analyzed by DRX (powder); format: physicochemical; settings: particularly polyethylene bag as primary packaging; driven by relative humidity
Description: X-Ray Diffraction spectra were registered by means of diffractometer (Rigaku-D-Max) from a start angle [½ 2-theta] of 5.000 to 60.000. The diffraction diagrams were obtained employing a Cu anode (Kα=1,54060 Å and Kα=1,54439 Å). The HPLC method utilized to check the quality of Tiotropium Bromide in the examined samples is the same as described in the European Pharmacopoeia 7.0.

SMILES	Solid state after heating (DRX) [1]	Solid state after mild heating [2]	Crystalline form in the same storage conditions [3]
C[N+]1(C)[C@@H]2C[C@@H](OC(=O)C(O)(c3cccs3)c3cccs3)C[C@H]1[C@@H]1O[C@@H]12 [Tiotropium Bromide monohydrate]	changes into the corresponding anhydrous form	easily transformed	–
C[N+]1(C)[C@@H]2C[C@@H](OC(=O)C(O)(c3cccs3)c3cccs3)C[C@H]1[C@@H]1O[C@@H]12.[Br-] [Tiotropium Bromide, Tiotropium bromide]	–	–	may absorb or lose water, thus changing the crystalline form
